Measured values as given in ChEMBL document CHEMBL4219086, “Development of benzoxazole deoxybenzoin oxime and acyloxylamine derivatives targeting innate immune sensors and xanthine oxidase for treatment of gout” (Bioorg Med Chem, 2018).
Calls of active or inactive are those of the source. The rule behind the calls is not given here.

How the values were obtained:
[1] = target: Xanthine dehydrogenase/oxidase (Homo sapiens, UniProt P47989); experiment: Inhibition of Xanthine oxidase (unknown origin) using xanthine as substrate preincubated for 1 to 5 mins followed by substrate addition
Sequence of Xanthine dehydrogenase/oxidase (P47989 whole entry): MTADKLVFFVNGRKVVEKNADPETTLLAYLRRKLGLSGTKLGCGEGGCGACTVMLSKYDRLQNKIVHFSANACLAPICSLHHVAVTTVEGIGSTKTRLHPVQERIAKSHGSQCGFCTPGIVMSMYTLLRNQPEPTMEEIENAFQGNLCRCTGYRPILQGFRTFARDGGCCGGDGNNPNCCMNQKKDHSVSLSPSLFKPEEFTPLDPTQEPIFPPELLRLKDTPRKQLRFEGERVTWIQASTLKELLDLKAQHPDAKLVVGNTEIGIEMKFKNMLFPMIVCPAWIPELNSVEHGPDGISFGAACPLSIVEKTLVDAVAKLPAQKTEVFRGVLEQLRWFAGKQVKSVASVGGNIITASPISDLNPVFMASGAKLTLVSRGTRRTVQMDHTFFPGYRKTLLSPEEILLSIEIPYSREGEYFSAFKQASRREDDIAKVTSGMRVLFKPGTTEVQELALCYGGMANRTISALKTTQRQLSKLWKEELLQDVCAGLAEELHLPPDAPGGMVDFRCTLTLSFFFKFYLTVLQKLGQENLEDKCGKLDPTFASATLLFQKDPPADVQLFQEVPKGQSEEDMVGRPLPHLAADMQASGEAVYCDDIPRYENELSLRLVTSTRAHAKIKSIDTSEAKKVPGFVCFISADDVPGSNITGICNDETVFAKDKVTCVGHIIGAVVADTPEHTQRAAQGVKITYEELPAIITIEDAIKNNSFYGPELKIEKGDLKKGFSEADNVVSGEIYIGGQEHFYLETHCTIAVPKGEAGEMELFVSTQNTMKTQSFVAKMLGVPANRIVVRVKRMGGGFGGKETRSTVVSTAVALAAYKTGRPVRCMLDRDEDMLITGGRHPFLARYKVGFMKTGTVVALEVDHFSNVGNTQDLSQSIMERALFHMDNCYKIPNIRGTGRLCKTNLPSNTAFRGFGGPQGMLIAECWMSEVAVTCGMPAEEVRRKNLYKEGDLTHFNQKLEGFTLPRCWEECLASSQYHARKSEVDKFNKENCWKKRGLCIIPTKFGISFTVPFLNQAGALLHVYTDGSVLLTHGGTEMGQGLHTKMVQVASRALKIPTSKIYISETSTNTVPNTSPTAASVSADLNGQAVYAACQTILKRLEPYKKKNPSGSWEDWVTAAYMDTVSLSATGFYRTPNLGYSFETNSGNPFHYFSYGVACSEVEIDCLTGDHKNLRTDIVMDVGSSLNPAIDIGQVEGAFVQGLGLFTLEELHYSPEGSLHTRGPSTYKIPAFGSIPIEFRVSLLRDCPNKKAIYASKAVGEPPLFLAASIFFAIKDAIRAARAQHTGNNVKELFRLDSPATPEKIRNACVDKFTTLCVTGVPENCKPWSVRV

Toll-like receptor 4 = Toll-like receptor 4 (Homo sapiens, UniProt O00206); experiment: Inhibition of human TLR4 signaling expressed in HEK-Blue cells co-expressing MD2/CD14 assessed as reduction in LPS-induced NF-kappaB activation-mediated SEAP production preincubated for 2 hrs followed by LPS stimulation for 20 hrs by colorimetric assay; format: cell-based
Sequence of Toll-like receptor 4 (O00206 whole entry): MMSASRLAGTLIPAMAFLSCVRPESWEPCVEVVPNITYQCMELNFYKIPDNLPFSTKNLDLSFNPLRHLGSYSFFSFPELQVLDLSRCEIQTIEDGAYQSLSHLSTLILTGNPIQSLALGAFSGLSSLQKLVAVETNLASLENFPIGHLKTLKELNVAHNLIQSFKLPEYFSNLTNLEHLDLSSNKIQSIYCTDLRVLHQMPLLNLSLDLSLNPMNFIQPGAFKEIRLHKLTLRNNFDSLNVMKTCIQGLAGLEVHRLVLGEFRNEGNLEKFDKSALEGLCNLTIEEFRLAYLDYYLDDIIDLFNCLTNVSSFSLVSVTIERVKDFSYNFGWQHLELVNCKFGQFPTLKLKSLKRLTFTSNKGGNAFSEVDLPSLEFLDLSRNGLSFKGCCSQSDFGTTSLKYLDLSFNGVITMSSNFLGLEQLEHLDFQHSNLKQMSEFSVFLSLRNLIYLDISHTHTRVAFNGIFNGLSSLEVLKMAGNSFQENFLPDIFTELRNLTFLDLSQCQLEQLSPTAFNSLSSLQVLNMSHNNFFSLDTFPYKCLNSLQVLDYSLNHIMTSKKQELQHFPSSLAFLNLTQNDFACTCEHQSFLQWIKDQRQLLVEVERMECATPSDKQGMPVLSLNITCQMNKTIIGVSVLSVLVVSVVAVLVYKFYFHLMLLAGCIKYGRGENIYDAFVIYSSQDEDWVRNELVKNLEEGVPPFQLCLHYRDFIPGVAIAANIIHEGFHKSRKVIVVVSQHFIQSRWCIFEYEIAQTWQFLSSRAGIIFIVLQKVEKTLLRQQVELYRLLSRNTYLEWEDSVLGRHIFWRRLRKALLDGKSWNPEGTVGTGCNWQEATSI

Mus musculus [2] = experiment: Anti-hyperuricemic effect in Kunming mouse assessed as inhibition of potassium oxonate-induced serum uric acid level administered po 1 hr post potassium oxonate addition measured after 1 hr by phosphotungstic acid method; format: functional, organism-based
Mus musculus [3] = experiment: In vivo inhibition of XOD activity in liver of Kunming mouse model of potassium oxonate-induced hyperuricemia at 2.5 mg/kg, po treated 1 hr post potassium oxonate addition measured after 1 hr relative to control; format: functional
Mus musculus [4] = experiment: In vivo inhibition of XOD activity in liver of Kunming mouse model of potassium oxonate-induced hyperuricemia at 5 mg/kg, po treated 1 hr post potassium oxonate addition measured after 1 hr relative to control; format: functional
Mus musculus [5] = experiment: Hypouricemic effect in Kunming mouse assessed as inhibition of hepatic XOD activity at 5 mg/kg, po measured after 1 hr relative to control; format: organism-based
Mus musculus [6] = experiment: Hypouricemic effect in Kunming mouse assessed as inhibition of hepatic XOD activity at 10 mg/kg, po measured after 1 hr relative to control; format: organism-based
Rattus norvegicus [7] = experiment: Antiarthritic activity in MSU-induced acute gouty arthritis Sprague-Dawley rat model assessed as reduction in ankle swelling by measuring perimeter of ankle at 2.5 mg/kg, po qd pretreated via gavage for 5 days followed by MSU treatment at 1 hr post last dose measured immediately (reference value: 2.64 +/- 0.81 cm); format: functional
Rattus norvegicus [8] = experiment: Antiarthritic activity in MSU-induced acute gouty arthritis Sprague-Dawley rat model assessed as reduction in ankle swelling by measuring perimeter of ankle at 5 mg/kg, po qd pretreated via gavage for 5 days followed by MSU treatment at 1 hr post last dose measured immediately (reference value: 2.64 +/- 0.81 cm); format: functional
Rattus norvegicus [9] = experiment: Antiarthritic activity in MSU-induced acute gouty arthritis Sprague-Dawley rat model assessed as reduction in ankle swelling by measuring perimeter of ankle at 10 mg/kg, po qd pretreated via gavage for 5 days followed by MSU treatment at 1 hr post last dose measured immediately (reference value: 2.64 +/- 0.81 cm); format: functional
Rattus norvegicus [10] = experiment: Antiarthritic activity in MSU-induced acute gouty arthritis Sprague-Dawley rat model assessed as reduction in ankle swelling by measuring perimeter of ankle at 2.5 mg/kg, po qd pretreated via gavage for 5 days followed by MSU treatment at 1 hr post last dose measured after 2 hrs (reference value: 2.82 +/- 0.75 cm); format: functional
Rattus norvegicus [11] = experiment: Antiarthritic activity in MSU-induced acute gouty arthritis Sprague-Dawley rat model assessed as reduction in ankle swelling by measuring perimeter of ankle at 5 mg/kg, po qd pretreated via gavage for 5 days followed by MSU treatment at 1 hr post last dose measured after 2 hrs (reference value: 2.82 +/- 0.75 cm); format: functional
Rattus norvegicus [12] = experiment: Antiarthritic activity in MSU-induced acute gouty arthritis Sprague-Dawley rat model assessed as reduction in ankle swelling by measuring perimeter of ankle at 10 mg/kg, po qd pretreated via gavage for 5 days followed by MSU treatment at 1 hr post last dose measured after 2 hrs (reference value: 2.82 +/- 0.75 cm); format: functional
Rattus norvegicus [13] = experiment: Antiarthritic activity in MSU-induced acute gouty arthritis Sprague-Dawley rat model assessed as reduction in ankle swelling by measuring perimeter of ankle at 5 mg/kg, po qd pretreated via gavage for 5 days followed by MSU treatment at 1 hr post last dose measured after 4 hrs (reference value: 3.18 +/- 0.64 cm); format: functional
Rattus norvegicus [14] = experiment: Antiarthritic activity in MSU-induced acute gouty arthritis Sprague-Dawley rat model assessed as reduction in ankle swelling by measuring perimeter of ankle at 10 mg/kg, po qd pretreated via gavage for 5 days followed by MSU treatment at 1 hr post last dose measured after 4 hrs (reference value: 3.18 +/- 0.64 cm); format: functional
Rattus norvegicus [15] = experiment: Antiarthritic activity in MSU-induced acute gouty arthritis Sprague-Dawley rat model assessed as reduction in ankle swelling by measuring perimeter of ankle at 2.5 mg/kg, po qd pretreated via gavage for 5 days followed by MSU treatment at 1 hr post last dose measured after 8 hrs (reference value: 3.27 +/- 0.56 cm); format: functional
Rattus norvegicus [16] = experiment: Antiarthritic activity in MSU-induced acute gouty arthritis Sprague-Dawley rat model assessed as reduction in ankle swelling by measuring perimeter of ankle at 10 mg/kg, po qd pretreated via gavage for 5 days followed by MSU treatment at 1 hr post last dose measured after 12 hrs (reference value: 3.51 +/- 0.52 cm); format: functional
Rattus norvegicus [17] = experiment: Antiarthritic activity in MSU-induced acute gouty arthritis Sprague-Dawley rat model assessed as reduction in ankle swelling by measuring perimeter of ankle at 5 mg/kg, po qd pretreated via gavage for 5 days followed by MSU treatment at 1 hr post last dose measured after 24 hrs (reference value: 3.35 +/- 0.5 cm); format: functional
Rattus norvegicus [18] = experiment: Antiarthritic activity in MSU-induced acute gouty arthritis Sprague-Dawley rat model assessed as reduction in ankle swelling by measuring perimeter of ankle at 10 mg/kg, po qd pretreated via gavage for 5 days followed by MSU treatment at 1 hr post last dose measured after 24 hrs (reference value: 3.35 +/- 0.5 cm); format: functional
Rattus norvegicus [19] = experiment: Antiarthritic activity in po dosed MSU-induced acute gouty arthritis Sprague-Dawley rat model assessed as reduction in ankle swelling pretreated qd via gavage for 5 days followed by MSU treatment at 1 hr post last dose measured after 24 hrs; format: functional, organism-based
Rattus norvegicus [20] = experiment: Inhibition of MSU-induced IL-1beta level in serum of acute gouty arthritis Sprague-Dawley rat model at 2.5 to 10 mg/kg, po qd pretreated via gavage for 5 days followed by MSU treatment at 1 hr post last dose measured up to 24 hrs by ELISA; format: functional, organism-based
Rattus norvegicus [21] = experiment: Inhibition of MSU-induced ASC protein level in synovial homogenate of acute gouty arthritis Sprague-Dawley rat model at 2.5 to 10 mg/kg, po qd pretreated via gavage for 5 days followed by MSU treatment at 1 hr post last dose measured up to 24 hrs by Western blot method; format: functional, organism-based
Rattus norvegicus [22] = experiment: Inhibition of MSU-induced caspase-1 protein level in synovial homogenate of acute gouty arthritis Sprague-Dawley rat model at 2.5 to 10 mg/kg, po qd pretreated via gavage for 5 days followed by MSU treatment at 1 hr post last dose measured up to 24 hrs by Western blot method; format: functional, organism-based
Rattus norvegicus [23] = experiment: Inhibition of MSU-induced TLR4 protein level in synovial homogenate of acute gouty arthritis Sprague-Dawley rat model at 2.5 to 10 mg/kg, po qd pretreated via gavage for 5 days followed by MSU treatment at 1 hr post last dose measured up to 24 hrs by Western blot method; format: functional, organism-based
Rattus norvegicus [24] = experiment: Inhibition of MSU-induced phosphorylated IkappaB protein level in synovial homogenate of acute gouty arthritis Sprague-Dawley rat model at 2.5 to 10 mg/kg, po qd pretreated via gavage for 5 days followed by MSU treatment at 1 hr post last dose measured up to 24 hrs by Western blot method; format: functional, organism-based

Structure (SMILES): COc1ccc(C/C(=N\O)c2nc3ccc(OC)cc3o2)cc1
- IC50 [1]: 3.7 µM
- IC50 (Toll-like receptor 4): 0.54 µM
- inhibition (Mus musculus [2]): Dose-dependent effect
- inhibition in vivo at 2.5 mg/kg (Mus musculus [3]): 19.2%
- inhibition in vivo at 5 mg/kg (Mus musculus [4]): 35.8%
- inhibition at 5 mg/kg (Mus musculus [5]): 6.8%
- inhibition at 10 mg/kg (Mus musculus [6]): 10.2%
- Activity (Rattus norvegicus [7]): 2.65 cm
- Activity (Rattus norvegicus [8]): 2.7 cm
- Activity (Rattus norvegicus [9]): 2.56 cm
- Activity (Rattus norvegicus [10]): 2.78 cm
- Activity (Rattus norvegicus [11]): 2.56 cm
- Activity (Rattus norvegicus [12]): 2.69 cm
- Activity (Rattus norvegicus [13]): 2.84 cm
- Activity (Rattus norvegicus [14]): 2.79 cm
- Activity (Rattus norvegicus [15]): 2.96 cm
- Activity (Rattus norvegicus [16]): 2.7 cm
- Activity (Rattus norvegicus [17]): 2.8 cm
- Activity (Rattus norvegicus [18]): 2.73 cm
- Activity (Rattus norvegicus [19]): Dose-dependent effect
- inhibition (Rattus norvegicus [20]): Active
- inhibition (Rattus norvegicus [21]): Active
- inhibition (Rattus norvegicus [22]): Active
- inhibition (Rattus norvegicus [23]): Active
- inhibition (Rattus norvegicus [24]): Active
